Results as given in patent US8389468B2, “Approach to the treatment of compartment syndrome” (Lantmannen AS-Faktor AB, priority 2006, dated 2013).
Entries after “also recorded” stand apart in the source; their conditions may differ.

Legend:
HSV-1 infected rats [1] = assay: Outflow of CSF through cribriform lamina, Evans blue-albumin (EBA) infusion in HSV-1 infected rats; assay type: in vivo, rat; settings: 10 or 25 pg intranasally
Source text: FIG. 6: Sections through the cribriform lamina, a bone structure separating the brain from the nose and through which the olfactory nerve pass. In the left figure (a) the dye-protein complex Evans blue-albumin (EBA) was infused into the subarachnoid space at day 5 after HSV-1 infection. The animal suffered from moderate encephalitis. Note that there is no red EBA in the cribriform lamina, nor in the nose, as the passage between the brain and nasal cavity is blocked. In the right figure (b) EBA was infused into the subarachnoid space of a non-infected, normal rat.
(§1) Additional HSV-1 infected animals with distinctly overt symptoms were as well treated with 10 or 25 pg AF-16 intranasally, starting on day 5, 6 or 7, i.e. after having had the vehicle during the previous days. […] Thus, non of the acutely AF-16 treated rats had any persistent signs of deleterious ICP and thus no CS developed. […] That is seen in the mentioned figure (FIG. 5 a) as there is no red staining of the right half on the figure. However, treatment with 10 or 25 pg AF-16 intranasally turned the picture in HSV-1 infected rats as in the normal, non-infected ones. […] Thereby the outflow of CSF was restored and the ICP turned normal.

[2] = tested on: Staphylococcus areus (SA; strain LS1) infected joints; assay: Arthritis by arthritogenic Staphylococcus areus (strain LS1), joint pressure; assay type: in vivo, rat
Source text: Joints are enclosed by tender, noncompliant collagen capsules, further characterised by low elasticity but plasticity. At arthritis, the pressure in the synovial fluid in the joint cavity turns elevated, and inflammation adds to the symptoms. A CS is prevalent. In order to investigate if treatment with AF-16 could prevent or at least reduce the development of such a CS, adult rats were infected by systemic injection of a solution of an arthritogenic Staphylococcus areus (SA; strain LS1). One group of animals (n=3) were treated with AF-16 while a second group of rats (n=3) just received the vehicle, PBS. After a few days the knee joints and later on additional limb and foot joints turned tender, swollen and got elevated pressure in the joint cavities, as measured with the Samba Fibre Optic Pressure probe (Samba System 3200 & Samba Preclin 420 sensor; Samba Sensors AB, Gruvgatan 6, SE 42130 V. Frolunda, Sweden), as well as in the immediately surrounding tissue. The pressure in a normal synovial large joint is 0-5 mm Hg, but could increase more than five-fold in infected, inflamed joints. The interstitial fluid pressure in the subcutaneous tissue at a distance from the infected joint was measured for comparison and found to remain within normal limits, ±2 mm Hg. […] Infected animals, which only received treatment with the vehicle, PBS, developed CS of with time increasing severity.

[3] = tested on: Musculus extensor digitorum longus (EDL); assay: Ischemic injury of skeletal muscle (EDL), compartment pressure; assay type: in vivo, rat
Method: On the hind leg, the large vessels entering the Musculus extensor digitorum longus (EDL) were occluded for 1-3 hours by applying external pressure load (Cf. Jennische & Hansson, 1987; Jennische, Skottner & Hansson, 1987). Thereafter, the blood flow was allowed to resume, and the muscle enclosures and the skin incision repaired and sutured. […] A CS developed as the tissue and the interstitial tissue accumulated fluid in such a closed compartment and additionally the muscle tissue turned swollen and oedematous. The pressure within such an enclosed compartment increased, resulting in the development of a CS. Surgical intervention was required to prevent that parts of the skeletal muscle tissue became necrotic, if there was no additional treatment. […] Thus, treatment with AF-16 prevented the development of a CS, eventually reducing the tissue damage and loss.

HSV-1 infected rats [4] = assay: Intracranial pressure (ICP) and neurological symptoms in HSV-1 infected rats, fibre optic pressure sensor; assay type: in vivo, rat
Method: Adult rats were infected by having a solution of the Herpes Simplex virus type 1 (HSV-1; strain 2762, batch 041028; 1.7×10^7 PFU/mL; 25 pL) instilled in their right nostril. One group of animals (n=6) received 10 min after the infection 25 pL (10 pg) of AF-16 in their right nostril, and had thereafter the same dose of AF-16 instilled twice daily, every morning at 8 AM and every night at 6 PM, until the experiment was terminated on day 6. Additional HSV-1 infected rats (n=6) received in the nose at the same time intervals 25 pL of the vehicle, phosphate buffered saline (PBS). On day 6, the animals were anaesthetized, a surgical incision made through the skin on the head, and the skull bone freed from periostium and connective tissue. A hole with a diameter of about 1 mm was drilled through the right parietal bone and a miniature pressure sensor inserted 3-5 mm into the brain or into the lateral ventricle. A fibre optic pressure measure system (Samba System 3200 & Samba Preclin 420 sensor; Samba Sensors AB, V Frolunda, Sweden) with a very small diameter, ve. 0.4 mm, was used. […] HSV-1 infected rats treated with just the vehicle were measured to have as high pressures as up to 30-45 mm Hg (FIG. 2a), considerably affect the animals as reflected by symptoms of neurological dysfunction of increasing severity. In contrast, HSV-1 infected rats treated from the time of infection with AF-16 twice daily had almost normal ICP, 8-14 mm Hg (FIG. 2 b).
as §1

HSV-1 [5] = assay: Immunohistochemical visualization of HSV-1 proteins in brain, rats; assay type: in vivo, rat; settings: 1 or 10 pg intranasally twice daily, day 6
Method: (§2) An alternative explanation to the improved survival of HSV-1 infected animals could be that the treatment with AF-16 prevented the virus from multiplying and/or spreading in the brain. […] Adult rats were infected by having a solution of the herpes simplex virus type 1 (HSV-1; strain 2762, batch 041028; 1.7×10^7 PFU/mL) instilled in their right nostril. Half of the animals received 10 min later 25 pi_ (1 or 10 pg) of AF-16 in their right nostril, and had thereafter the same dose of AF-16 instilled every morning at 8 AM and every night at 6 PM until the experiment was terminated on day 6. The other groups of the HSV-1 infected rats received at the same time intervals 25 pL of the vehicle, PBS. The animals were closely watched for signs of general sickness and of behavioral and motor dysfunction. The animals were sacrificed by an overdose of anesthetics on day 6, the skull opened and the brain removed. The brains, including the olfactory bulbs, were fixed by immersion in buffered formalin for at least a day. The brains were the dissected and divided in several specimens, which were processed for light microscopic investigation after paraffin embedding and sectioning. The sections were processed for routine staining and for immunohistochemical visualization of HSV-1 proteins (FIG. 4). […] Note the distinct staining of the nerve cells (black in FIG. 4a-c).

HSV-1 [6] = assay: Immunohistochemical demonstration of HSV antigens in brain, mice; assay type: in vivo; settings: instillation twice daily in right nostril, six days
Method: as §2

[7] = overt symptoms, 10 or 25 pg intranasally starting on day 5, 6 or 7

Sequence: VCHSKTRSNPENNVGL [AF-16]
- outflow of CSF to nasal mucosa (EBA staining of cribriform lamina) (HSV-1 infected rats [1]): opened the passage for the CSF through the cribriform plate; also recorded: reversed the block of the outflow of CSF
- joint tenderness, swelling, pain ([2]; SA infected large joint): did not have that tender, swollen and painful joints
- pressure in the infected joint ([2]; SA infected large joint, n=3, normal joint 0-5 mm Hg): close to normal pressure in the joint
- number of S. areus in synovial fluid, treated vs not ([2]; larger joints): about the same
- pressure within the muscle compartment ([3]; EDL vessels occluded 1-3 hours, Samba pressure sensors): turn about normal
- extent and volume of muscle tissue damage (light microscopy) ([3]; vs vehicle): reduced the extent and volume of the tissue damage
- intracranial pressure (ICP) (HSV-1 infected rats [4]; HSV-1 infected rats, 10 pg AF-16 intranasally twice daily from time of infection, day 6, normal rats 4-8, vehicle 30-45): 8-14 mm Hg
- development of neurological dysfunctions (HSV-1 infected rats [4]; intranasal treatment twice daily from infection): prevented the development of neurological dysfunctions
- onset and duration of pressure reducing effect (HSV-1 infected rats [4]; [7]): detectable within an hour and lasted for several hours
- symptoms of neurological dysfunctions after acute treatment (HSV-1 infected rats [4]; [7]): turned reduced within half an hour and were not demonstrable any longer after one hour
- prevalence and distribution of HSV-1 proteins in the brain vs vehicle (HSV-1 [5]): no obvious difference with regard to the prevalence and distribution of HSV-1 proteins; also recorded: no difference in frequency or distribution of HSV-1 positive brain cells
- distribution or extent of virus antigens in the brain vs vehicle (HSV-1 [6]): no obvious difference in the distribution or extent of virus antigens
